Laboratory results as given in PubChem BioAssay (NCI).
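Following 48 hours of exposure in 96-well plates, responses at five concentrations were used to interpolate endpoints linearly. GI50: concentration for 50% inhibition of growth. At the TGI there is no net growth.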

Assays:
Assay in all cases: growth of human tumour cells (NCI), 48 h
OVCAR-5 ovarian = system: OVCAR-5 ovarian
SNB-75 CNS = system: SNB-75 CNS
SR leukemia = system: SR leukemia
UO-31 renal = system: UO-31 renal
SK-MEL-28 melanoma = system: SK-MEL-28 melanoma
IGROV1 ovarian = system: IGROV1 ovarian
COLO 205 colon = system: COLO 205 colon
SF-539 CNS = system: SF-539 CNS
M14 melanoma = system: M14 melanoma
HS 578T breast = system: HS 578T breast

SMILES	TGI (OVCAR-5 ovarian) [µM]	TGI (SNB-75 CNS) [µM]	TGI (SR leukemia) [µM]	TGI (UO-31 renal) [µM]	TGI (SK-MEL-28 melanoma) [µM]	TGI (IGROV1 ovarian) [µM]	TGI (COLO 205 colon) [µM]	TGI (SF-539 CNS) [µM]	TGI (M14 melanoma) [µM]	GI50 (OVCAR-5 ovarian) [µM]	GI50 (SNB-75 CNS) [µM]	GI50 (UO-31 renal) [µM]	GI50 (SK-MEL-28 melanoma) [µM]	GI50 (IGROV1 ovarian) [µM]	GI50 (COLO 205 colon) [µM]	GI50 (SF-539 CNS) [µM]	GI50 (M14 melanoma) [µM]	GI50 (HS 578T breast) [µM]	TGI (HS 578T breast) [µM]	GI50 (SR leukemia) [µM]
O=C1NC2(CCCC2)C2CCCCC12O (stereo not given)	> 100	> 100	> 100	> 100	> 100	> 100	> 100	> 100	> 100											
Brc1ccc(C=NC23CC4CC(CC(C4)C2)C3)cc1	> 100	> 100		> 100	> 100	> 100	> 100	> 100	> 100											
CC(=O)NCc1c(C(N)=O)ncn1Cc1ccccc1		> 100			> 100	> 100	> 100	> 100	> 100											
[Co].[O-]c1cccnc1C=Nc1ccccc1.[OH3+]	> 100	> 100		> 100	> 100	> 100	> 100	> 100	> 100	> 100	49.7	56.2	82.6	> 100	> 100	> 100	> 100			
CC1(C)CCc2c(c(N=Nc3ccccc3F)c3ccccc3c2O)O1	> 100	53.3		> 100	> 100	> 100	> 100	40.4	> 100	73.7	20.4	54.7	> 100	32.4	> 100	21.2	> 100	28.6	99.7	
Cc1ccc(/C=N/NS(=O)(=O)c2ccccc2)cc1C	> 100	> 100	> 100	> 100	> 100	> 100	> 100	> 100	> 100											
C1C[OH+]CCNCC[OH+]CC[OH+]CCN1.N.[Cl-].[Pt+4]		> 100		80	> 100	> 100	47.7	> 100	> 100		24.2	20.5	49.5	49.6	18.9	> 100	54.2			
CCCCCCCC(=O)OCC1OC(n2cc(F)c(=O)[nH]c2=O)C(N)C(O)C1O (stereo not given)	> 100	> 100	> 100	> 100	> 100	> 100	> 100	> 100	> 100											
CCC[CH2][Sn]1([CH2]CCC)[O]CC[S]1	2.72	1.92		2.54	0.898	4.64	3.29	2.03	2.68	1.39	0.61	1.28	0.238	1.55	0.969	0.736	0.872			
O=C(CCCC(=O)N/N=C/c1cc(Cl)ccc1O)N/N=C\c1cc(Cl)ccc1O	> 100	> 100		> 100	> 100	> 100	> 100	33.5	> 100	> 100	8.16	1.24	3.68	4.21	4.16	2.66	3.21	> 100	> 100	
CC[O-].CC[O-].O=C([CH-]C(=O)c1ccccc1)CCCCCCC(=O)[CH-]C(=O)c1ccccc1.[Ti+4]	> 100	> 100		> 100	> 100	> 100	> 100	> 100	> 100	> 100	> 100	> 100	> 100	> 100	> 100	> 100	> 100			
CN=C1CN=C(OP(=O)(N2CCOCC2)N2CCOCC2)c2cc(Cl)ccc2N1	> 100	> 100	> 100	> 100	> 100			> 100	> 100											
CC(=O)[CH-]C(C)=O.CC(=O)[CH-]C(C)=O.[Cl-].[O]=[V]	70.1	25.2	> 100	> 100	> 100	64.2	34.5	37.5	31	26.4	8.51	63.3	25.7	11.1	18.2	17.5	11.4			> 100
C[N+](C)(C)C1CC([N+](C)(C)C)C2c3ccccc3C21 (stereo not given)	> 100	> 100		> 100	> 100	> 100	> 100	> 100	> 100											
Cc1ccc2[nH]c(C(=O)NN3C(=O)C(C)SC34CCC(C)CC4)c(-c3ccccc3)c2c1 (stereo not given)	34.6	51.4		29.4	35.9	36.4	41.1	45.6	39	17	24.4	14	17.8	13.6	17.8	20.8	18.2	41.8	> 100	
O=S1(=O)c2cc(S(=O)(=O)n3ccnc3)ccc2NC2=NCCCN21	> 100	88.1	75.6	> 100	> 100	> 100	35.2	40.1	> 100											
N#CC(C(=O)CCC(=O)Nc1cccc(C(F)(F)F)c1)c1ccccc1 (stereo not given)	> 100	> 100		> 100	> 100	> 100		> 100	> 100											
COc1ccccc1NC(=O)C1=C(C)NC(C)=C(C(=O)Nc2ccccc2OC)C1c1ccccc1Cl	> 100	> 100	> 100	> 100	> 100	> 100	> 100	> 100	> 100											
